Reference: ChEMBL document CHEMBL1147549, “Imidazole acetic acid TAFIa inhibitors: SAR studies centered around the basic P(1)(') group” (Bioorg Med Chem Lett, 2004)

Columns and labels:
[1] = target: T1, Carboxypeptidase B (Homo sapiens, UniProt P15086); assay: Inhibition of human carboxypeptidase B (CPB)
T1 sequence (P15086 whole entry): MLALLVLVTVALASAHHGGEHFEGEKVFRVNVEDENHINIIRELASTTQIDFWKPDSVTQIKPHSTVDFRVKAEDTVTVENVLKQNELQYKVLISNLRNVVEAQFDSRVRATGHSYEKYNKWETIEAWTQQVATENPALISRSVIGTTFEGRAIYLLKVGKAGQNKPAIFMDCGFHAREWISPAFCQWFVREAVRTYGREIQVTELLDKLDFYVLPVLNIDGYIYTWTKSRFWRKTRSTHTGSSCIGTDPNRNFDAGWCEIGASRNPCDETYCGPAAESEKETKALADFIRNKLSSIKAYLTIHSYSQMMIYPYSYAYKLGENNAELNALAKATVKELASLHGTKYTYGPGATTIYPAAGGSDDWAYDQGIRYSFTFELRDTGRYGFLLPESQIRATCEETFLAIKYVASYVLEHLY

[2] = Concentration providing 50% acceleration of clot lysis in pooled human plasma; assay type: functional
[3] = target: T2, Carboxypeptidase B2 (Homo sapiens, UniProt Q96IY4); assay: Inhibitory potency against human TAFIa (thrombin-activatable fibrinolysis inhibitor)
T2 sequence (Q96IY4 whole entry): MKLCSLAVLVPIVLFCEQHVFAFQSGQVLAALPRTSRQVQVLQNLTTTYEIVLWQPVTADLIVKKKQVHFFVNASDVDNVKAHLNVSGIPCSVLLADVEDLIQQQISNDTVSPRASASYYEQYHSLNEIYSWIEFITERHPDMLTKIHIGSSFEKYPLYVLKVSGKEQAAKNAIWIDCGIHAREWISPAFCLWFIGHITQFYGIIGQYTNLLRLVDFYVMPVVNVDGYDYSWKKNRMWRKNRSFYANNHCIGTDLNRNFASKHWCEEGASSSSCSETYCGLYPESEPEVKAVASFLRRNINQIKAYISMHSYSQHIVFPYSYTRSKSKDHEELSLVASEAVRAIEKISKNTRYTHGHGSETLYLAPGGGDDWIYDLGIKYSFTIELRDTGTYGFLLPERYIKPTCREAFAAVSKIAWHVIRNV

[4] = species: Homo sapiens; assay: Selectivity for TAFIa versus CPB carboxypeptidase B isoforms

Row | Structure (SMILES) | IC50 [1] | IC50 [3] | Selectivity [4] | CLT50 [2]
1 | CC(C)CCn1cnc(C(Cc2ccc(N)nc2)C(=O)O)c1 (configuration not stated) | 4 nM |  |  | ==0.12 uM
2 | Nc1ncc(CC(C(=O)O)c2c[nH]cn2)cn1 (configuration not stated) |  | 67 µM |  | 
3 | CN(C)CCCCC(C(=O)O)c1cnc[nH]1 (configuration not stated) |  | > 50 µM |  | 
4 | CNCCCCC(C(=O)O)c1cnc[nH]1 (configuration not stated) |  | 26 µM |  | 
5 | Nc1cc(CC(C(=O)O)c2c[nH]cn2)ccn1 (configuration not stated) |  | 12 µM |  | 
6 | O=C(O)C(CC1CCNC1)c1c[nH]cn1 (configuration not stated) |  | > 20 µM |  | 
7 | CC(CN)CCC(C(=O)O)c1c[nH]cn1 (configuration not stated) |  |  | 5.6 | 
8 | O=C(O)C(CCC1CNC1)c1cnc[nH]1 (configuration not stated) |  | > 20 µM |  | 
9 | CNc1ccc(CC(C(=O)O)c2cnc[nH]2)cn1 (configuration not stated) |  | 13 µM |  | 
10 | O=C(O)C(CCC1CCCNCC1)c1cnc[nH]1 (configuration not stated) |  | > 20 µM |  | 
11 | O=C(O)C(CC1CCCNCC1)c1c[nH]cn1 (configuration not stated) |  | > 20 µM |  | 
12 | O=C(O)C(CC1CNC1)c1cnc[nH]1 (configuration not stated) |  | > 20 µM |  | 
13 | NC1CCCC(CC(C(=O)O)c2c[nH]cn2)C1 (configuration not stated) |  | > 20 µM |  | 
14 | Nc1ncc(CC(C(=O)O)c2c[nH]cn2)cc1F (configuration not stated) |  | 6.7 µM |  | 
15 | O=C(O)C(CCC1CCNC1)c1cnc[nH]1 (configuration not stated) |  | > 20 µM |  | 
16 | Cc1nc(N)ccc1CC(C(=O)O)c1c[nH]cn1 (configuration not stated) |  | 5.8 µM |  | 
17 | Nc1cccc(CC(C(=O)O)c2cnc[nH]2)n1 (configuration not stated) |  | 15 µM |  | 
18 | NC1CCC(CC(C(=O)O)c2cnc[nH]2)CC1 (configuration not stated) |  | 7 µM |  | 
19 | Nc1ccc(CC(C(=O)O)c2c[nH]cn2)cn1 (configuration not stated) | 70 nM |  |  | 0.97 µM
20 | Nc1ncc(CC(C(=O)O)c2cnc[nH]2)cc1Cl (configuration not stated) |  | 5.3 µM |  | 
21 | NCCCC(C(=O)O)c1cnc[nH]1 (configuration not stated) |  | 6.8 µM |  | 
22 | O=C(O)C(CCC1CCNCC1)c1c[nH]cn1 (configuration not stated) |  | > 20 µM |  | 
23 | O=C(O)C(CC1CCNCC1)c1cnc[nH]1 (configuration not stated) |  | > 20 µM |  | 

More lines, in order of falling IC50 [3], values ahead:

Row | IC50 [1] | IC50 [3] | Selectivity [4] | Structure (SMILES) | CLT50 [2]
24 |  | 4.7 µM |  | NCCCCCC(C(=O)O)c1cnc[nH]1 (configuration not stated) | 
25 |  | 3.3 µM |  | O=C(O)C(Cc1ccc2nccn2c1)c1cnc[nH]1 (configuration not stated) | 
26 |  | 1.5 µM |  | Cc1cc(N)ncc1CC(C(=O)O)c1c[nH]cn1 (configuration not stated) | 
27 | 3700 nM | 0.59 µM | 6.3 | NCCCCC(C(=O)O)c1c[nH]cn1 (configuration not stated) | >=20 uM
28 | 600 nM | 0.38 µM | 1.6 | CC(C)(CN)CCC(C(=O)O)c1c[nH]cn1 (configuration not stated) | 
29 | 1500 nM | 0.27 µM |  | CC(CN)CCC(C(=O)O)c1cnc[nH]1 (configuration not stated) | 
30 | 20 nM | 0.1 µM | 0.2 | Cc1cc(CC(C(=O)O)c2c[nH]cn2)cnc1N (configuration not stated) | 2.1 µM
31 | 160 nM | 0.024 µM | 6.7 | CC(C)CCn1cnc(C(CCCCN)C(=O)O)c1 (configuration not stated) | 0.21 µM
32 | 1 nM | 0.023 µM | 0.04 | Cc1cc(CC(C(=O)O)c2cn(CCC(C)C)cn2)cnc1N (configuration not stated) | 0.17 µM
33 | 1 nM | 0.012 µM | 0.08 | Cc1cc(CC(C(=O)O)c2cn(CCC(C)(C)C)cn2)cnc1N (configuration not stated) | 0.159 µM
34 | 1 nM | 0.001 µM | 1 | CC(C)(C)CCn1cnc(C(C[C@H]2CC[C@H](N)C2)C(=O)O)c1 (some centres not stated) | 0.014 µM
